According to PubChem BioAssay AID1940 (Sanford-Burnham Center for Chemical Genomics, 2009):

Test system: mouse liver microsomes, LC/MS/MS parent remaining, 60 min
Experiment: mouse hepatic microsomal parent compound depletion – biochemical, LC/MS/MS, with and without NADPH, ADME assay, late-stage follow-up (AID 1940)
Settings: at 1 µM, stronger effect = lower value

percent remaining: 0.56%
percent remaining (measured here: no NADPH control): 61.2%
Compound: CC1Cc2cc(S(=O)(=O)N3CCN(c4ccc(Cl)cc4)CC3)ccc2N1C(=O)C1CC1 (configuration not stated)
